Measurements reported in patent publication US11485987B2, “Methods for inducing bioorthogonal reactivity” (University of Delaware, priority 2015, dated 2022).

Assay: FeCl2 catalyzed oxidation of a dihydrotetrazine in the presence of H2O2
Details: DHTz 100 μM, 1 mM H2O2, FeCl2 0.05 mM, deionized water
Method: N′-Boc PEG10 dipyridyl-dihydrotetrazine was dissolved in deionized water containing 1 mM H2O2 to give a final DHTz concentration of 100 μM. The UV absorbance at 330 nm wavelength was monitored over 10 min. Then a 5 mM FeCl2 stock solution was added and mixed quickly to get a final FeCl2 concentration of 0.05 mM., followed by continuous monitoring of UV absorbance at 330 nm over 10 min. Oxidation was rapid and complete within ˜1 minute.

Q: For CC(C)(C)OC(=O)NCCOCCOCCOCCOCCOCCOCCOCCOCCOCCOCCOCCNC(=O)CCCC(=O)Nc1ccc(C2=NNC(c3ccccn3)=NN2)nc1 [N′-Boc PEG10 dipyridyl-dihydrotetrazine], which “time to complete oxidation” value is on record?
A: Its value is roughly 1 min.
